Assay results reported in ChEMBL document CHEMBL1135635, “Kappa-opioid receptor model in a phospholipid bilayer: molecular dynamics simulation” (J Med Chem, 2002).

Target: Kappa-type opioid receptor (Cavia porcellus, UniProt P41144)
Test: Inhibition of [3H]U-69593 binding towards Opioid receptor kappa 1 in guinea pig brain homogenates.
Type: tissue-based

Kappa-type opioid receptor, sequence (P41144 whole entry): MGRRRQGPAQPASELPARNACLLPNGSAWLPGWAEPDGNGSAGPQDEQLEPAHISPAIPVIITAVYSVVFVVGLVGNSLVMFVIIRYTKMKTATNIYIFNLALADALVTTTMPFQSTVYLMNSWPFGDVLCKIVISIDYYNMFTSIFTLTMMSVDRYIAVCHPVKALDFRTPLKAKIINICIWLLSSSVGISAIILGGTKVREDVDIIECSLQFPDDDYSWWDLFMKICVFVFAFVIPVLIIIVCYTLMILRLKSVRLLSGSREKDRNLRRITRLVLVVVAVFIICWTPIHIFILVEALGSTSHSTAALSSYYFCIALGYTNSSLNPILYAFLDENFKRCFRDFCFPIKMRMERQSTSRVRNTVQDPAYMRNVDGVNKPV

Row | Structure (SMILES) | Ki [nM]
1 | CC(=O)OC[C@@]1(c2ccccc2)CC1CN1CC[C@]2(C)c3cc(O)ccc3CC1[C@@H]2C (some centres not stated) | 228
2 | C[C@H]1C2Cc3ccc(O)cc3[C@@]1(C)CCN2CC1C[C@@]1(C(=O)Nc1ccccc1)c1ccccc1 (some centres not stated) | 2350
